Assay results taken from patent US12351576B2, “FGFR inhibitor, preparation method therefor and application thereof” (Abbisko Therapeutics Co., Ltd., priority 2018, dated 2025).
Where two headings read alike, the source gives them in different places.

How the values were obtained:
[1] = target: FGFR2 (Homo sapiens (Human), UniProt P21802); test: In vitro biochemical kinase assay (Caliper Assay), FGFR2; settings: enzyme 2.5 nM, ATP 1 μM, 40 minutes; read-out: Enzymatic activity IC50(nM) FGFR2
Protocol: (§1) I. In Vitro Biochemical Kinase Assay of FGFR 1˜3
(§2) Caliper Assay was used in the present invention to determine the inhibitory activities of the compounds against FGFR1, FGFR2, and FGFR3. The specific experimental procedure was as follows: • 1. The kinase reaction in the present invention was carried out in 384-well plates, the kinase(Carna) at a certain concentration and ATP at a certain concentration and 1 μM of peptide FAM-P22 (GL Biochem, Cat. No. 112393)) was incubated to react for a certain time at 28° C. in a reaction system consisting of 50 mM HEPES, […], 0.0015% Brij-35 and basic kinase buffer; for FGFR1, the enzyme concentration was 0.25 nM and ATP concentration was 382 μM and the reaction time was 20 minutes; for FGFR2, the enzyme concentration was 2.5 nM, ATP concentration was 1 μM, and the reaction time was 40 minutes; for FGFR3, the enzyme concentration was 8 nM, ATP concentration was 4.7 μM, and the reaction time was 30 minutes: • 2. The reaction was terminated with a stop solution (100 mM HEPES, pH 7.5, 0.2% Caliper coating, reagent, 50 mM EDTA and 0.015% Brij35); • 3. The plate with the terminated kinase reaction was transferred to the Caliper workstation to read the data; • 4. the phosphorylated and unphosphorylated peptides were separated by the Caliper microfluid migration shift technique, and the analyte was transferred by a constant buffer flow through the chip, the migration of the substrate peptide was monitored by the labeled fluorescent signal, and the kinase activity was calculated by the amount of the phosphate-based peptide formed. • 5. IC50 was determined by non-linear regression analysis of percent inhibition at different concentration level of the compound.

[2] = target: FGFR1 (Homo sapiens (Human), UniProt P11362); test: In vitro biochemical kinase assay (Caliper Assay), FGFR1; settings: enzyme 0.25 nM, ATP 382 μM, 20 minutes; read-out: Enzymatic activity IC50(nM) FGFR1
Chain of FGFR1 (P11362 22-822): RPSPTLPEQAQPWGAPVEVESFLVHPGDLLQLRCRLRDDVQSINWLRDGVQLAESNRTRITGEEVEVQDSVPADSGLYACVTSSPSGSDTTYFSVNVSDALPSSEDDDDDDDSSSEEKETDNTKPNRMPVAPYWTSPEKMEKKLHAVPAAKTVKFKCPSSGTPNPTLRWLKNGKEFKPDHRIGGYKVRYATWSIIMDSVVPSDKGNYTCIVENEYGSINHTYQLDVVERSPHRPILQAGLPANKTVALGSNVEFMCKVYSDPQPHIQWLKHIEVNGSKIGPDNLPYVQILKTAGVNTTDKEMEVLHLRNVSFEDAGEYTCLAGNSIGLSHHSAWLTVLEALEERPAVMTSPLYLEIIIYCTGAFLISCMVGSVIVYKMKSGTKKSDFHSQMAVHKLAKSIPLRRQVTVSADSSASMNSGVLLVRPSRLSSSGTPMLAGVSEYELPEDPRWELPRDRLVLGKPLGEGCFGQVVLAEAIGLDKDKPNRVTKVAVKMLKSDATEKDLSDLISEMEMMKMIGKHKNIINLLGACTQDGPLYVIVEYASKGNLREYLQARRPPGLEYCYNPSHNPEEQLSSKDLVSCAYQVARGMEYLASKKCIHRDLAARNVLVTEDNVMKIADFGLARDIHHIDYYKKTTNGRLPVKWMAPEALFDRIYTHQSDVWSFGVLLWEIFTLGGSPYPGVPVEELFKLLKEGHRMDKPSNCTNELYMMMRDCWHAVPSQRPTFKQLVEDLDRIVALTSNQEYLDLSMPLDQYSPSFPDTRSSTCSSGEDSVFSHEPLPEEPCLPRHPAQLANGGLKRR
Protocol: as §1, §2

[3] = system: H1581 lung cancer cells (FGFR1 gene amplification); test: Cell proliferation assay (Cell Titer Glo), H1581; type: cell-based; settings: 3 days, CTG, read-out: Cellular IC50 (nM) H1581
Protocol: (§3) II. Cell Proliferation Assay (Cell Titer Glo(CTG) Assay)
(§4) The FGFR signal pathway dependent inhibitory effect of the compound in the present invention on cell proliferation was assessed by survival test using CTG reagent (Promega, 4G7573). Cell lines representative of a variety of tumor types, including H1581 lung cancer cells (FGFR1 gene amplification), Snu-16 gastric cancer cells (FGFR2 gene amplification), and RT112 bladder carcinoma cells (FGFR3-TACC3 fusion) from Nanjing Cobioer Biosciences, were selected for the assay. The specific experimental procedure was as follows: • 1. 90 μL of cells were seeded into a 96-well plate processed with TCM (Costar 43904), and incubated overnight at 37° C. in a 5% CO2 incubator; afterwards, 10 μL of the culture medium containing the compound at 10 fold of its final concentration was added; • 2. The dose-dependent effect was evaluated by a serial dilution of the test compound, starting from 10 μM or a lower concentration. • 3. The cells were incubated at 37° C. under 5% C02 for 3 days, then added 50 μL CTG, and read the data with Envision (Pelkin Elmer) to quantify the ATP level in the cells. The ATP levels in cells with treatment of inhibitor at a variety of concentrations were compared with those in cells of the control group (in which DMSO was added into the medium) to evaluate the compound percent inhibition of cell proliferation/survival. • 4. The compound half growth inhibitory concentration (IC50) was determined in Graphpad Prism by 4-parameter curve fitting.

[4] = system: Snu-16 gastric cancer cells (FGFR2 gene amplification); test: Cell proliferation assay (Cell Titer Glo), Snu-16; type: cell-based; settings: Snu-16 cells, 3 days, CTG, read-out: Cellular IC50 (nM) Sun16
Protocol: as §3, §4

[5] = system: RT112 bladder carcinoma cells (FGFR3-TACC3 fusion); test: Cell proliferation assay (Cell Titer Glo), RT112; type: cell-based; settings: Homo sapiens, RT-112, 72 h, 3 days, CTG, read-out: Cellular IC50 (nM) RT112
Protocol: as §3, §4

Chain of FGFR2 (P21802 22-821): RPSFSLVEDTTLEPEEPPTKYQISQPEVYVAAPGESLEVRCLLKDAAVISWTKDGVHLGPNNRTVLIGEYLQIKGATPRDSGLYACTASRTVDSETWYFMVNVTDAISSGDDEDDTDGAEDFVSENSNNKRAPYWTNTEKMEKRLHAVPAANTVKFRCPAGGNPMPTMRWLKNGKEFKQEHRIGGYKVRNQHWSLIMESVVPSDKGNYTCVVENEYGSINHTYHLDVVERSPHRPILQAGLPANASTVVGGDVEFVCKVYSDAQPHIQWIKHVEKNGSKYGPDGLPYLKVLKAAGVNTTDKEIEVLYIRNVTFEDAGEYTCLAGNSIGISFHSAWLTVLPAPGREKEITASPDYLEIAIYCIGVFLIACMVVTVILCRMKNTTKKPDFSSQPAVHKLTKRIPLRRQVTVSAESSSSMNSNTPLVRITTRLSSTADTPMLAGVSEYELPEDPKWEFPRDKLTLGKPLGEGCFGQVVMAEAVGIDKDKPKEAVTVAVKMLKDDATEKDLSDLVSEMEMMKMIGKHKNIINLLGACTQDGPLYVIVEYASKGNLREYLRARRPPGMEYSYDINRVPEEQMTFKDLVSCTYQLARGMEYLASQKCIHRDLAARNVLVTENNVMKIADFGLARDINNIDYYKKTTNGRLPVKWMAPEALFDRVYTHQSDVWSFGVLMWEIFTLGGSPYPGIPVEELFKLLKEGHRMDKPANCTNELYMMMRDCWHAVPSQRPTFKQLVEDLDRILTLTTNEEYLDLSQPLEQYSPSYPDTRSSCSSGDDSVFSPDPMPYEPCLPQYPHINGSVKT

SMILES	IC50 [1]	IC50 [2]	IC50 ([3]; Homo sapiens, NCI-H1581, 72 h)	IC50 ([4]; Homo sapiens, SNU-16, 72 h)	IC50 ([5]; numeric values)	IC50 ([4]; Homo sapiens, SNU-16, 72 h, numeric values)	IC50 [3]	IC50 [4]	IC50 [5]
COc1cc(OC)c(Cl)c(-c2cc3cnc(-c4cnn(C)c4)cc3n(CCN3CCOCC3)c2=O)c1Cl [Example 5, 3-(2,6-dichloro-3,5-dimethoxyphenyl)-7-(1-methyl-1H-pyrazol-4-yl)-1-(2-morpholinoethyl)-1,6-naphthyridin-2(1H)-one]	10 to 50 nM	50 to 500 nM	50 to 500 nM	10 to 50 nM					
CCn1c(=O)c(-c2cc(OC)cc(OC)c2Cl)cc2cnc(-c3cnn(C)c3)cc21 [Example 13, 3-(2-chloro-3,5-dimethoxyphenyl)-1-ethyl-7-(1-methyl-1H-pyrazol-4-yl)-1,6-naphthyridin-2(1H)-one]	5 to 10 nM	50 to 500 nM							
COc1cc(OC)c(Cl)c(-c2cc3cnc(-c4cnn(CCN5CCOCC5)c4)cc3n(C3CCOC3)c2=O)c1Cl (centres unmarked) [Example 18, 3-(2,6-dichloro-3,5-dimethoxyphenyl)-7-(1-(2-morpholinoethyl)-1H-pyrazol-4-yl)-1-(tetrahydrofuran-3-yl)-1,6-naphthyridin-2(1H)-one]			50 to 500 nM		4.1 nM	6 nM			
COc1cc(OC)c(F)c(-c2cc3cnc(-c4cnn(CCN5CCOCC5)c4)cc3n(C(C)C)c2=O)c1F [Example 30, 3-(2,6-difluoro-3,5-dimethoxyphenyl)-1-isopropyl-7-(1-(2-morpholinoethyl)-1H-pyrazol-4-yl)-1,6-naphthyridin-2(1H)-one]	≤ 5 nM	≤ 5 nM	10 to 50 nM	≤ 5 nM					
COc1cc(OC)c(F)c(-c2cc3cnc(-c4cnn(C)c4)cc3n(C3CCCC3)c2=O)c1F [Example 33, 1-cyclopentyl-3-(2,6-difluoro-3,5-dimethoxyphenyl)-7-(1-methyl-1H-pyrazol-4-yl)-1,6-naphthyridin-2(1H)-one]	≤ 5 nM	≤ 5 nM	10 to 50 nM	≤ 5 nM					
COc1cc(OC)c(F)c(-c2cc3cnc(-c4cnn(CCN5CCOCC5)c4)cc3n(C3CCCC3)c2=O)c1F [Example 34, 1-cyclopentyl-3-(2,6-difluoro-3,5-dimethoxyphenyl)-7-(1-(2-morpholinoethyl)-1H-pyrazol-4-yl)-1,6-naphthyridin-2(1H)-one]			10 to 50 nM	≤ 5 nM					≤ 5 nM
COc1cc(OC)c(F)c(-c2cc3cnc(-c4ccc(C(C)(C)C#N)nc4)cc3n(C3CCOC3)c2=O)c1F (centres unmarked) [Example 40, 2-(5-(3-(2,6-difluoro-3,5-dimethoxyphenyl)-2-oxo-1-(tetrahydrofuran-3-yl)-1,2-dihydro-1,6-naphthyridin-7-yl)pyridin-2-yl)-2-methylpropanenitrile]	≤ 5 nM	5 to 10 nM	50 to 500 nM	5 to 10 nM					
CCn1c(=O)c(-c2c(Cl)c(OC)cc(OC)c2Cl)cc2cnc(-c3cn(C4CCN(C)C4)nc3C)cc21 (centres unmarked) [Example 46, 3-(2,6-dichloro-3,5-dimethoxyphenyl)-1-ethyl-7-(3-methyl-1-(1-methylpyrrolidin-3-yl)-1H-pyrazol-4-yl)-1,6-naphthyridin-2(1H)-one]	≤ 5 nM	10 to 50 nM	50 to 500 nM	10 to 50 nM					
COc1cc(OC)c(Cl)c(-c2cc3cnc(-c4cnn(CCN(C)C)c4)cc3n(C3CCOC3)c2=O)c1Cl (centres unmarked) [Example 48, 3-(2,6-dichloro-3,5-dimethoxyphenyl)-7-(1-(2-(dimethylamino)ethyl)-1H-pyrazol-4-yl)-1-(tetrahydrofuran-3-yl)-1,6-naphthyridin-2(1H)-one]	≤ 5 nM	10 to 50 nM	50 to 500 nM	5 to 10 nM					

The remaining lines, values ahead:

IC50 [1]	IC50 [2]	IC50 ([3]; Homo sapiens, NCI-H1581, 72 h)	IC50 ([4]; Homo sapiens, SNU-16, 72 h)	IC50 ([5]; numeric values)	IC50 ([4]; Homo sapiens, SNU-16, 72 h, numeric values)	IC50 [3]	IC50 [4]	IC50 [5]	SMILES
≤ 5 nM	10 to 50 nM								CCn1c(=O)c(-c2c(Cl)c(OC)cc(OC)c2Cl)cc2cnc(-c3cnn(C)c3)cc21 [Example 1, 3-(2,6-dichloro-3,5-dimethoxyphenyl)-1-ethyl-7-(1-methyl-1H-pyrazol-4-yl)-1,6-naphthyridin-2(1H)-one]
≤ 5 nM	5 to 10 nM								COc1cc(OC)c(Cl)c(-c2cc3cnc(-c4cnn(C)c4)cc3n(C(C)C)c2=O)c1Cl [Example 3, 3-(2,6-dichloro-3,5-dimethoxyphenyl)-1-isopropyl-7-(1-methyl-1H-pyrazol-4-yl)-1,6-naphthyridin-2(1H)-one]
≤ 5 nM	10 to 50 nM	50 to 500 nM	50 to 500 nM						COc1cc(OC)c(Cl)c(-c2cc3cnc(-c4cnn(C)c4)cc3n(CC3CC3)c2=O)c1Cl [Example 4, 1-(cyclopropylmethyl) 3-(2,6-dichloro-3,5-dimethoxyphenyl)-7-(1-methyl-1H-pyrazol-4-yl)-1,6-naphthyridin-2(1H)-one]
≤ 5 nM	≤ 5 nM	10 to 50 nM	5 to 10 nM						COc1cc(OC)c(Cl)c(-c2cc3cnc(-c4cnn(C)c4)cc3n(C3CCOC3)c2=O)c1Cl (centres unmarked) [Example 7, 3-(2,6-dichloro-3,5-dimethoxyphenyl)-7-(1-methyl-1H-pyrazol-4-yl)-1-(tetrahydrofuran-3-yl)-1,6-naphthyridin-2(1H)-one]
≤ 5 nM	10 to 50 nM								CCn1c(=O)c(-c2c(Cl)c(OC)cc(OC)c2Cl)cc2cnc(-c3cn(C)nc3C)cc21 [Example 9, 3-(2,6-dichloro-3,5-dimethoxyphenyl)-7-(1,3-dimethyl-1H-pyrazol-4-yl)-1-ethyl-1,6-naphthyridin-2(1H)-one]
≤ 5 nM	10 to 50 nM	50 to 500 nM	10 to 50 nM						CCn1c(=O)c(-c2c(Cl)c(OC)cc(OC)c2Cl)cc2cnc(-c3cnn(C4CN(S(C)(=O)=O)C4)c3)cc21 [Example 11, 3-(2,6-dichloro-3,5-dimethoxyphenyl)-1-ethyl-7-(1-(1-(methylsulfonyl)azetidin-3-yl)-1H-pyrazol-4-yl)-1,6-naphthyridin-2(1H)-one]
≤ 5 nM	≤ 5 nM					10 to 50 nM	≤ 5 nM		COc1cc(OC)c(Cl)c(-c2cc3cnc(-c4cnn(C)c4)cc3n([C@H]3CCOC3)c2=O)c1Cl [Example 22, (S)-3-(2,6-dichloro-3,5-dimethoxyphenyl)-7-(1-methyl-1H-pyrazol-4-yl)-1-(tetrahydrofuran-3-yl)-1,6-naphthyridin-2(1H)-one]
≤ 5 nM	≤ 5 nM	50 to 500 nM	50 to 500 nM						CCn1c(=O)c(-c2c(F)c(OC)cc(OC)c2F)cc2cnc(-c3cnn(C)c3)cc21 [Example 25, 3-(2,6-difluoro-3,5-dimethoxyphenyl)-1-ethyl-7-(1-methyl-1H-pyrazol-4-yl)-1,6-naphthyridin-2(1H)-one]
≤ 5 nM	5 to 10 nM	50 to 500 nM	10 to 50 nM						CCn1c(=O)c(-c2c(F)c(OC)cc(OC)c2F)cc2cnc(-c3cnn(CCN4CCOCC4)c3)cc21 [Example 29, 3-(2,6-difluoro-3,5-dimethoxyphenyl)-1-ethyl-7-(1-(2-morpholinoethyl)-1H-pyrazol-4-yl)-1,6-naphthyridin-2(1H)-one]
